Entries after “also recorded” stand apart in the source; their conditions may differ.
Experiments:
[1] = target: T1, Kv11.1 hERG cardiac ion channel (Homo sapiens, UniProt Q12809); assay: Kv11.1 (hERG) ion channel activity (patch clamp assay); assay type: cell-based; conditions: HEK293 transfected with hERG
T1 construct: expressed in transfected cells; host or cells: HEK293 (human embryonic kidney cells), stably transfected
Method: Method for the detection and characterisation of test substances which interfere with the Kv11.1 (hERG) channel: Kv11.1 (hERG, human ether a-go-go related gene) is a potassium channel which plays a central role for repolarisation of the cells in the ventricular cardiomyocytes.
The patch-clamp measurement was carried out at room temperature in whole-cell configuration on human embryonic kidney cells (HEK293) which have been transfected in a stable manner with the hERG gene.
The whole-cell configurations were carried out using an automated patch clamp device (Patchliner™, Nanion Technologies, Munich). […]
The cells were clamped to a holding potential of −80 mV. […] DMSO (vehicle control, 0.1% of DMSO) was then applied, and the control current was recorded for 3 min. The test substance was subsequently added twice in the same concentration, and the potassium current was measured for 3.5 min in each case.
If the measurement result of a test substance at an initial concentration of 10 μM was smaller than (−)50% effect (threshold value) (for example (−)60% effect), the test substance was, in order to determine a dose/action relationship, added cumulatively in increasing concentration, where each concentration was measured for 5 min.
The reference substance used was the Kv11.1 (hERG) ion channel blocker quinidine. […] For the calculation, the current was evaluated for the respective final trace. […]

[2] = tested on: CYP1A2, CYP2C8, CYP2C9, CYP2C19, CYP2D6, CYP3A4; assay: Cytochrome P-450 enzymes (CYP) inhibition, P450-Glo; assay type: in vitro ADME; conditions: human
Method: In the human organism, drug substances are converted to water-soluble compounds by enzyme systems to facilitate their excretion. These enzyme systems include microsomal cytochrome P-450 enzymes, CYPs for short. The assay is designed to identify whether a compound may be a strong inhibitor for defined CYP isoforms. This involves the use of recombinant CYP isoforms and their reductase obtained by overexpression in insect cells infected with baculovirus. The CYP reaction is performed through […] of the CYP isoform being tested along with a luminometric CYP substrate under NADPH-regenerating conditions. The luminometric P450-Glo™ substrates are derivatives of beetle luciferin ((4S)-4,5-dihydro-2-(6-hydroxybenzothiazolyl)-4-thiazolecarboxylic acid or D-luciferin), a substrate of firefly luciferase from beetles. […] This allows enzyme activity to be quantified rapidly through the luminosity. […] The following commercially available screening systems/assays are used: P450-Glo™ CYP1A2 Screening System (Promega Corporation; V9770); P450-Glo™ CYP2C8 Assay (Promega Corporation; V8782); P450-Glo™ CYP2C9 Screening System (Promega Corporation; V9790); P450-Glo™ CYP2C19 Screening System (Promega Corporation; V9880); P450-Glo™ CYP2D6 Screening System (Promega Corporation; […]); P450-Glo™ CYP3A4 Screening System (Luciferin-PPXE) (Promega Corporation; V9910).

[3] = tested on: xenografts of the human squamous cell head and neck model FaDu; assay: FaDu SCCHN tumor model, combination with irradiation; assay type: in vivo, NMRI nu/nu mice; conditions: oral 10 or 25 mg/kg 30 min before each IR fraction; 6×5 days, 2 Gy
Method: One of the control groups was treated with vehicle only. The other control group was treated with IR only at 30 fractions IR of 2 Gy in a 5 days on/2 days off schedule and over a period of 6 weeks.

[4] = tested on: HBCx-10 patient-derived triple-negative breast cancer xenograft; assay: HBCx-10 patient-derived xenograft, combination with olaparib; assay type: in vivo, immunodeficient female mice; conditions: 100 mg/kg p.o. (3 d on/4 d off)×7 with olaparib 50 mg/kg p.o. qd×49
Method: Seventy (70) mice with a subcutaneously growing HBCx-10 tumor (P20.1.4/0) between 62.5 and 196.0 mm^3 were allocated to treatment when their mean and median tumor volume reached 131.16 and 126.00 mm^3 respectively.
Tumors were measured biweekly during the treatment period and once a week during the follow-up period.

T1 sequence (Q12809 whole entry): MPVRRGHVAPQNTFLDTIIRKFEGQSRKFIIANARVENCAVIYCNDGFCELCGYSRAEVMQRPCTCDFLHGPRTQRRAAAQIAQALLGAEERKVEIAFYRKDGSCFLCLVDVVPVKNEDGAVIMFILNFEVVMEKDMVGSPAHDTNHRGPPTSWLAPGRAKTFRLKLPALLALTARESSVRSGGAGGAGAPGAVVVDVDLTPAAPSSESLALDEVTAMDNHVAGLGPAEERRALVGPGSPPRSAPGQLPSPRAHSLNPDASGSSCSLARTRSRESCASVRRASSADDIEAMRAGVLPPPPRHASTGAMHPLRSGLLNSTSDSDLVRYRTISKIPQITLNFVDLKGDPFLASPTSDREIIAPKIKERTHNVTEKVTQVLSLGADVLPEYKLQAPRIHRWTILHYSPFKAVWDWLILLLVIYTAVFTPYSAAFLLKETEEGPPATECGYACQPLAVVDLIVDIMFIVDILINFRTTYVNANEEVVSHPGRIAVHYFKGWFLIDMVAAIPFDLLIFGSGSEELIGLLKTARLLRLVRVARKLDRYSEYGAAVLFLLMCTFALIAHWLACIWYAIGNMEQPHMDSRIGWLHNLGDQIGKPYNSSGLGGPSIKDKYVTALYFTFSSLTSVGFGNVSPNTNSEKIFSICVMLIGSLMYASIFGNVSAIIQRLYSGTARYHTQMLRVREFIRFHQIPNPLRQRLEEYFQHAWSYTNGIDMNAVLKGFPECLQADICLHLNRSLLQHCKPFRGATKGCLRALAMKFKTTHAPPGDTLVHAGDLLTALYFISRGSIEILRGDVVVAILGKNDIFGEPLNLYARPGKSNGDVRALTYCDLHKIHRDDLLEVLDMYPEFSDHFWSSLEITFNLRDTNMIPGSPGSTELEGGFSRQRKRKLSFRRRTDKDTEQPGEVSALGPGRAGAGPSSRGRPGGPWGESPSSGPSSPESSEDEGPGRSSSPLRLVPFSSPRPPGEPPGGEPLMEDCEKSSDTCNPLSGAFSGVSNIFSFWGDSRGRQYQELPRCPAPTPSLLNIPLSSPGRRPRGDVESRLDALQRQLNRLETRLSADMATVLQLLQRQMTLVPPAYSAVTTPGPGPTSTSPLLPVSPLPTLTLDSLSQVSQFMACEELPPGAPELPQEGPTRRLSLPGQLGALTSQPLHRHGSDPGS

- IC50 [2]: ≥ 20 µM
SMILES: COc1cc2ncc3c(c2cc1-c1cn(C)nc1C)n(-c1c(F)cncc1OC)c(=O)n3C (single isomer, unassigned) [Compound 1, 8-(1,3-Dimethyl-1H-pyrazol-4-yl)-1-(Sa)-(3-fluoro-5-methoxy-pyridin-4-yl)-7-methoxy-3-methyl-1,3-dihydro-imidazo[4,5-c]quinolin-2-one]
- Ki [1]: > 30 µM
- Anti-tumor efficacy in combination with irradiation [3]: significant dose-dependent anti-tumor responses; also recorded: strongly enhanced the efficacy of IR (irradiation) in a dose-dependent manner; also recorded: strong tumor growth inhibition
- Anti-tumor efficacy in combination with olaparib [4]: efficacy of Compound 1 in combination with olaparib was demonstrated

Reference: patent publication US20250188080A1, “IMIDAZOLONYLQUINOLINE COMPOUNDS AND THERAPEUTIC USES THEREOF” (Merck Patent GmbH, priority 2019, published 2025)
